Data reported in patent publication US11208405B2, “Pyrrole derivatives as PLK1 inhibitors” (SENTINEL ONCOLOGY LIMITED, priority 2017, dated 2021).
Structures can show the parent of a compound that is named as a salt.

What follows are compounds tested on HCT116 cells (assay: Effects on HCT116 colorectal cancer cell viability (cell titre blue, 72 hours)). Settings: Homo sapiens, HCT-116, HCT116 cell line.
Format: cell-based
Procedure: Assay to Measure the Effects of Compounds of the Invention on HCT116 Colorectal Cancer Cell Viability
The following protocol was used to measure the effects of compounds of the invention on HCT116 cell viability.
1. HCT116 cells were grown in RPM11640 media supplemented with Glutamax and 10% FBS in a 37° C./5% CO2 incubator.
2. Growing culture of HCT116 cells were trypsinised, counted and diluted to give 10,000 cells/mL in an appropriate volume, allowing at least 6 mL of cells per plate.
3. 200 μL of PBS were added to all the outer wells of a flat-bottomed (8×12) 96-well TC plate. 100 μL of media were added only to wells in column 11 of the plates (these wells provided a blank for the cell titre blue assay). Two compounds were assayed on each plate.
4. 100 ul of 10,000 cells/mL HCT116s were plated in rows B-G of each plate.
5. The cells were incubated (37° C. 5% CO2) for 24 hours before treating with compounds.
6. An 8 mM compound stock in DMSO was prepared for all compounds to be tested. 2.5 μL of the compound stock was added to 1000 μL growth medium in a 96-well deep well block and serial dilutions were prepared across the plate by transferring 500 μL into wells containing 500 μL growth medium+0.25% DMSO to give eight concentrations of compound (this ensured a constant amount of DMSO at all concentrations of compound). When making up growth medium+DMSO, an amount of 5 ml was allowed per compound to be diluted.
7. 3 rows of cells were treated with 100 μL/well from each row on the dilution plate so that each cell plate is treated with a single compound. This gave a final volume in all wells of 200 μL and a titration of compound from a final concentration of 10 uM down to 78 nM.
8. The cells were incubated (37° C. 5% CO2) for 72 hours.
9. 5 ul cell titre blue reagent (Promega) were added to all wells except the edge wells (which contain PBS only) and incubated (37° C. 5% CO2) for 2.5-3 hours.
10. Fluorescence was measured on a suitable plate reader using a 530-570 nm filter set for excitation and a 580-620 nm filter set for fluorescence emission.
11. Data were analysed using an appropriate graphing package (such as GraphPad Prism). Data were expressed as the concentration of compound causing a 50% inhibition of cell viability or GI50.

Compound | GI50
CN(C)CCNC(=O)c1cccc(-c2ccc(-c3ccc(F)cc3)n2-c2ccccc2C(F)(F)F)c1 [Example 5, hydrochloride] | 560 nM
CN(C)CCNC(=O)c1cccc(-c2ccc(-c3ccc(Oc4ccccc4)cc3)n2-c2ccc(F)cc2)c1 [Example 8, hydrochloride] | 1850 nM
CN(C)CCCNc1cccc(-c2ccc(-c3ccc(Br)cc3)n2-c2ccccc2C(F)(F)F)c1 [Example 16, N-[3-[5-(4-Bromophenyl)-1-[2-(trifluoromethyl)phenyl]pyrrol-2-yl]phenyl]-N′,N′-dimethyl-propane-1,3-diamine Hydrochloride] | 2720 nM
CN(C)CCNC(=O)c1ccc(Cl)c(-c2ccc(-c3ccc(Br)cc3)n2-c2ccccc2)c1 [Example 19, hydrochloride] | 4210 nM
COc1ccc(C(=O)NCCN(C)C)cc1-c1ccc(-c2ccc(Br)cc2)n1-c1ccccc1 [Example 20, hydrochloride] | 3940 nM
CN(C)CC(=O)NCc1cccc(-c2ccc(-c3ccc(Br)cc3)n2-c2ccccc2C(F)(F)F)c1 [Example 21, N-[[3-[5-(4-Bromophenyl)-1-[2-(trifluoromethyl)phenyl]pyrrol-2-yl]phenyl]methyl]-2-(dimethylamino)acetamide Hydrochloride] | 1060 nM
O=C(O)c1ccc(-c2ccc(-c3ccc(Br)cc3)n2-c2ccccc2C(F)(F)F)cc1 [Example 27, 4-[5-(4-bromophenyl)-1-[2-(trifluoromethyl)phenyl]pyrrol-2-yl]benzoic acid] | 4740 nM
CN(C)CCNC(=O)c1ccc(-c2ccc(-c3ccc(Br)cc3)n2-c2ccccc2C(F)(F)F)nc1 [Example 29, 6-[5-(4-Bromophenyl)-1-[2-(trifluoromethyl)phenyl]pyrrol-2-yl]-N-[2-(dimethylamino)ethyl]pyridine-3-carboxamide Hydrochloride] | 60 nM
O=C(O)c1ccc(-c2ccc(-c3ccc(Br)cc3)n2-c2ccccc2C(F)(F)F)nc1 [Example 30, 6-[5-(4-bromophenyl)-1-[2-(trifluoromethyl)phenyl]pyrrol-2-yl]pyridine-3-carboxylic acid] | 8440 nM
COc1cc(-c2ccc(-c3ccc(Br)cc3)n2-c2ccccc2C(F)(F)F)ccc1C(=O)NCCCN(C)C [Example 31, hydrochloride] | 1450 nM
COc1cc(C(=O)NCCN(C)C)ccc1-c1ccc(-c2ccc(Br)cc2)n1-c1ccccc1C(F)(F)F [Example 32, hydrochloride] | 60 nM
CN(C)CCNC(=O)c1ccc(-c2ccc(-c3ccc(Br)cc3)n2-c2ccccc2C(F)(F)F)cc1Cl [Example 38] | 190 nM
CN(C)CCNC(=O)c1ccc(-c2ccc(-c3ccccc3)n2-c2ccccc2C(F)(F)F)cc1Cl [Example 39, hydrochloride] | 350 nM
CN(C)CCNC(=O)c1ccc(-c2ccc(-c3ccc(Br)cc3)n2-c2ccccc2CN(C)C)cc1 [Example 40, hydrochloride] | 1030 nM
CN(C)CCNC(=O)c1ccc(-c2ccc(-c3ccc(F)cc3F)n2-c2ccccc2C(F)(F)F)cc1 [Example 43] | 200 nM
CN(C)CCNS(=O)(=O)c1ccc(-c2ccc(-c3ccc(Br)cc3)n2-c2ccccc2C(F)(F)F)cc1 [Example 44, 4-[5-(4-Bromophenyl)-1-[2-(trifluoromethyl)phenyl]pyrrol-2-yl]-N-[2-(dimethylamino)ethyl]benzenesulfonamide Hydrochloride] | 510 nM
CN(C)CCOCc1ccc(-c2ccc(-c3ccc(Br)cc3)n2-c2ccccc2C(F)(F)F)cc1 [Example 45, 2-[[4-[5-(4-Bromophenyl)-1-[2-(trifluoromethyl)phenyl]pyrrol-2-yl]phenyl]methoxy]-N,N-dimethyl-ethanamine Hydrochloride] | 350 nM
CN(C)CCC(=O)Nc1ccc(-c2ccc(-c3ccc(Br)cc3)n2-c2ccccc2C(F)(F)F)cc1 [Example 46, N-[4-[5-(4-Bromophenyl)-1-[2-(trifluoromethyl)phenyl]pyrrol-2-yl]phenyl]-3-(dimethylamino) propanamide Hydrochloride] | 160 nM
O=C(O)Cc1ccc(-c2ccc(-c3ccc(Br)cc3)n2-c2ccccc2C(F)(F)F)cc1 [Example 47, 2-[4-[5-(4-Bromophenyl)-1-[2-(trifluoromethyl)phenyl]pyrrol-2-yl]phenyl]acetic Acid] | 1380 nM
CN1CCN(Cc2ccc(-c3ccc(-c4ccc(Br)cc4)n3-c3ccccc3C(F)(F)F)cc2)CC1 [Example 48, hydrochloride] | 410 nM
CN(C)CCNC(=O)c1ccc(-c2ccc(-c3ccc(Cl)cc3)n2-c2cnccc2C(F)(F)F)cc1 [Example 49, hydrochloride] | 50 nM
COCc1ccccc1-n1c(-c2ccc(Br)cc2)ccc1-c1ccc(C(=O)NCCN(C)C)cc1 [Example 50] | 2180 nM
CN(C)CCCNC(=O)c1ccc(-c2ccc(-c3ccc(Cl)cc3)n2-c2cnccc2C(F)(F)F)cc1 [Example 51, hydrochloride] | 100 nM

Compound | GI50
COc1ccc(C(=O)NCCN(C)C)cc1-c1ccc(-c2ccc(Br)cc2)n1-c1ccccc1C(F)(F)F [Example 52, hydrochloride] | 350 nM
CN(C)[C@@H]1CCN(C(=O)c2cccc(-c3ccc(-c4ccc(Br)cc4)n3-c3ccccc3C(F)(F)F)c2)C1 [Example 54, hydrochloride] | 1380 nM
CN(C)[C@H]1CCN(C(=O)c2cccc(-c3ccc(-c4ccc(Br)cc4)n3-c3ccccc3C(F)(F)F)c2)C1 [Example 55, hydrochloride] | 2250 nM
CC(C)Cc1ccc(C(F)(F)F)c(-n2c(-c3ccc(Cl)cc3)ccc2-c2ccc(C(=O)NCCN(C)C)cc2)c1 [Example 63, hydrochloride] | 1640 nM
CC(C)Cc1ccc(C(F)(F)F)c(-n2c(-c3ccc(Cl)cc3)ccc2-c2ccc(C(=O)NCCCN(C)C)cc2)c1 [Example 64, hydrochloride] | 1700 nM
NS(=O)(=O)c1ccc(-c2ccc(-c3ccc(Br)cc3)n2-c2ccccc2C(F)(F)F)cc1 [Example 65, 4-[5-(4-bromophenyl)-1-[2-(trifluoromethyl)phenyl]pyrrol-2-yl]benzenesulfonamide] | 1960 nM
CN(C)CCNC(=O)c1ccc(-c2ccc(-c3ccc(C#N)nc3)n2-c2ccccc2C(F)(F)F)cc1 [Example 66, hydrochloride] | 890 nM
CN(C)CCNC(=O)c1ccc(-c2ccc(-c3ccccc3)n2-c2cnccc2C(F)(F)F)c(Cl)c1 [Example 67, hydrochloride] | 70 nM
CN(C)CCCNC(=O)c1ccc(-c2ccc(-c3ccccc3)n2-c2cnccc2C(F)(F)F)c(Cl)c1 [Example 68, hydrochloride] | 110 nM
CN(C)CCNC(=O)c1ccc(-c2ccc(-c3cccc(Cl)c3)n2-c2ccccc2C(F)(F)F)cc1 [Example 72, hydrochloride] | 1730 nM
COc1cc(C(=O)NCCN(C)C)ccc1-c1ccc(-c2ccc(Cl)cc2)n1-c1cnccc1C(F)(F)F [Example 73, hydrochloride] | 90 nM
COc1cc(C(=O)NCCCN(C)C)ccc1-c1ccc(-c2ccc(Cl)cc2)n1-c1cnccc1C(F)(F)F [Example 74, hydrochloride] | 130 nM
CN(C)CCNC(=O)c1ccc(-c2ccc(-c3ccc(Cl)cn3)n2-c2ccccc2C(F)(F)F)cc1 [Example 75, hydrochloride] | 150 nM
CN(C)CCCNC(=O)c1ccc(-c2ccc(-c3ccc(Cl)cn3)n2-c2ccccc2C(F)(F)F)cc1 [Example 76, hydrochloride] | 240 nM
CN(C)CCNC(=O)c1ccc(-c2ccc(-c3ccc(Cl)cc3)n2-c2cccc(C(F)(F)F)c2)cc1 [Example 77, hydrochloride] | 3630 nM
CN(C)CCCNC(=O)c1ccc(-c2ccc(-c3ccc(Cl)cc3)n2-c2cccc(C(F)(F)F)c2)cc1 [Example 78, hydrochloride] | 2130 nM
CN(C)CCNC(=O)c1ccc(-c2ccc(-c3ccc(Cl)cc3)n2-c2ncccc2C(F)(F)F)cc1 [Example 79, hydrochloride] | 3830 nM
CN(C)CCCNC(=O)c1ccc(-c2ccc(-c3ccc(Cl)cc3)n2-c2ncccc2C(F)(F)F)cc1 [Example 80, hydrochloride] | 3920 nM
O=C(NCCN1CCOCC1)c1ccc(-c2ccc(-c3ccc(Cl)cc3)n2-c2cnccc2C(F)(F)F)cc1 [Example 81, hydrochloride] | 80 nM
CN(C)CCN(C)C(=O)c1ccc(-c2ccc(-c3ccc(Cl)cc3)n2-c2ccccc2C(F)(F)F)cc1 [Example 83, hydrochloride] | 60 nM
O=C(c1ccc(-c2ccc(-c3ccc(Cl)cc3)n2-c2ccccc2C(F)(F)F)cc1)N1CCNCC1 [Example 84, hydrochloride] | 190 nM
CN1CCN(C(=O)c2ccc(-c3ccc(-c4ccc(Cl)cc4)n3-c3ccccc3C(F)(F)F)cc2)CC1 [Example 85, hydrochloride] | 490 nM
